Test results reported in BindingDB's records for doi:10.3109/14756360903179377 (Graduate University of Chinese Academy of Sciences, 2010).

Biological target: Fatty acid synthase (Gallus gallus, UniProt P12276)
Assay: FAS Activity Assay
Settings: pH 7; 37 °C
Description: FAS activity was determined by monitoring the decrease in absorbence at 340 nm resulting from the oxidation of NADPH using an Amersham Pharmacia Ultrospec 4300 pro UV-Vis spectrophotometer at 37°C. The assay mixture contained 100 mM potassium phosphate buffer, pH 7.0, 1 mM EDTA (ethylenediaminetetraacetic acid), 2.5 μM acetyl-CoA, 10 μM malonyl-CoA, 32 μM NADPH, and 10 μg chicken liver FAS in a total volume of 2.0 mL [Tian et al., J. Biol. Chem., 260:11375-87]. Fast inhibition was determined by adding thioether to the reaction system before FAS initiated the reaction. The initial velocity was measured to calculate the remaining activity (RA) of FAS, and each assay was repeated three times.

Sequence of Fatty acid synthase (P12276 whole entry): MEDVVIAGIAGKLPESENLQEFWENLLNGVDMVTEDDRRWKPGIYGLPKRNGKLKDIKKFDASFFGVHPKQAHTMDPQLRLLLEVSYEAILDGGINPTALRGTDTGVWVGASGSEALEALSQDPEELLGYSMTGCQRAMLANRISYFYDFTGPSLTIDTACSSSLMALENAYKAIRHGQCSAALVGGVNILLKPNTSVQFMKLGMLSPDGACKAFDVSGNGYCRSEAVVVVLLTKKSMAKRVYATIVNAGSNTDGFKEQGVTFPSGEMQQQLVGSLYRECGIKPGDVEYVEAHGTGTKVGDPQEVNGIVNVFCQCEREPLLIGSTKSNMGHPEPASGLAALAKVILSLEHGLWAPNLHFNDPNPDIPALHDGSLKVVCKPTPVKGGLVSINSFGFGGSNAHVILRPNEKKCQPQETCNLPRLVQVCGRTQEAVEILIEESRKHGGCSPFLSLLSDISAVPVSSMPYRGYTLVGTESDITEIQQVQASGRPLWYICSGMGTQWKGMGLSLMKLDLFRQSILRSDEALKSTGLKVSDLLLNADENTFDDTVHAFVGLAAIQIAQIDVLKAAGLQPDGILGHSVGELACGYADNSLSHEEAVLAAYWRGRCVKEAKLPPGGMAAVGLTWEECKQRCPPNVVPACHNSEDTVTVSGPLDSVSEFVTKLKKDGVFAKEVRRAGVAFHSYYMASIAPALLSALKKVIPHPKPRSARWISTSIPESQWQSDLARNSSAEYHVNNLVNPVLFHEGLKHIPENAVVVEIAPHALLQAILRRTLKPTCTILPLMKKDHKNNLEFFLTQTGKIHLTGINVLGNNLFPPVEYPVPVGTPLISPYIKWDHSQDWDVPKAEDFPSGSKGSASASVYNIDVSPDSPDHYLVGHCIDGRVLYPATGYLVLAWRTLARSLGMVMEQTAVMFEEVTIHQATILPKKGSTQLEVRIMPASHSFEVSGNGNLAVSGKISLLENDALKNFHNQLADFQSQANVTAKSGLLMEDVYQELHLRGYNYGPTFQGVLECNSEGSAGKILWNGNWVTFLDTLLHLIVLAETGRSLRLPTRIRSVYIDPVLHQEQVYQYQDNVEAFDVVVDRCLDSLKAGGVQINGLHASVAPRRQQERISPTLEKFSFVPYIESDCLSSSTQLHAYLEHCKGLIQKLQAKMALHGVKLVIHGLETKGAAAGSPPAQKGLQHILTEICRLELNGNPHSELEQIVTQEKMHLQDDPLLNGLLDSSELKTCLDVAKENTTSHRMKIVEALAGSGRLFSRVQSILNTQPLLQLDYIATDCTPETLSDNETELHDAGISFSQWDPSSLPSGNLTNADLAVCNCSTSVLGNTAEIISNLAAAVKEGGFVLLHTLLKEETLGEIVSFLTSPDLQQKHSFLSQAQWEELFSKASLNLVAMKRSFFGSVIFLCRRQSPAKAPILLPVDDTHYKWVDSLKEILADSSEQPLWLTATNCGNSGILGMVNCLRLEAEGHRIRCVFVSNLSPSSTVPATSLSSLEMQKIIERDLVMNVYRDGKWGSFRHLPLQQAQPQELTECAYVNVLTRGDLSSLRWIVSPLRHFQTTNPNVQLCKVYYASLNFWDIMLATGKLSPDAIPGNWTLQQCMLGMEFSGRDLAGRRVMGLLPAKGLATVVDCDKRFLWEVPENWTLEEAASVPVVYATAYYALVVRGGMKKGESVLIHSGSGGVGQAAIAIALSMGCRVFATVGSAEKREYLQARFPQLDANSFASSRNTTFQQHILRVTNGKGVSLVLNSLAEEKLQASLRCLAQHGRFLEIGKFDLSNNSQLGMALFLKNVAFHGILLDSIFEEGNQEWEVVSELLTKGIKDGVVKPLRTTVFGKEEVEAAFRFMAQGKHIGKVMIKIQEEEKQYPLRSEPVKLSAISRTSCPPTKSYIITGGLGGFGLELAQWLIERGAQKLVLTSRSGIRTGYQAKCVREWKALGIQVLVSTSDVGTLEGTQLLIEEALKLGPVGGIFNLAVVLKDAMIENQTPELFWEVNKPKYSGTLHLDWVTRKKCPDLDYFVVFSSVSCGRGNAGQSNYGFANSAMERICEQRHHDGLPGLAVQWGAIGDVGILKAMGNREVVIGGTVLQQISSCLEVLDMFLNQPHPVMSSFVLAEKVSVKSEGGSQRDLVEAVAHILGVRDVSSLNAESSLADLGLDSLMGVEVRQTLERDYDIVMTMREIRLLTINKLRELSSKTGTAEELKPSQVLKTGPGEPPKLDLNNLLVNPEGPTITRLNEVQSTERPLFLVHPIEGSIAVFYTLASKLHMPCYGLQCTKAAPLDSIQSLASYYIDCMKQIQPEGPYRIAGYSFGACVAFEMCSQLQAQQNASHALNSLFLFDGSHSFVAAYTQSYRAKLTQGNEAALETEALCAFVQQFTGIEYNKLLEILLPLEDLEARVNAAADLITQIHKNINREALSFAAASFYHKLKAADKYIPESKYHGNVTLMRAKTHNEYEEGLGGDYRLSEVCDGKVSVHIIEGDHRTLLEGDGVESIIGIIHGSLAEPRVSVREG

Row | SMILES | IC50 [µM]
1 | CSSC [Dimethyl disulfide] | 2210
2 | C=CCSSSCC=C [Diallyl trisulfide] | 8.37
3 | C=CCSSCC=C [3-Allyldisulfanyl-propene] | 145
